This is an account of results in PubChem BioAssay (NCI).

Some test systems named below: 786-0 renal; PC-3 prostate; SK-MEL-28 melanoma; BT-549 breast; SN12C renal; OVCAR-8 ovarian; ACHN renal; A549 NSCLC; HOP-62 NSCLC; K-562 leukemia.
Assay in all cases: NCI anticancer screen, dose series, 48 h

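In this assay, cells in 96-well plates receive the compound at five concentrations for 48 hours. Endpoints are linearly interpolated between the surrounding concentrations. GI50 = concentration required for 50% inhibition of growth. Definition used: TGI = concentration required for complete inhibition of growth.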

With `CCCCCCNc1nc(N2CCOCC2)c2[nH]c(NCCCCCC)nc2n1`, the GI50 is 1.8 µM in the experiment on 786-0 renal; 1.68 µM with PC-3 prostate; 1.65 µM with SK-MEL-28 melanoma; 1.66 µM in the experiment with BT-549 breast; 1.76 µM in the experiment on SN12C renal; 1.77 µM with OVCAR-8 ovarian. The GI50 with ACHN renal was 1.6 µM; with A549 NSCLC it was 1.69 µM; in the experiment with HOP-62 NSCLC, 1.67 µM. Further, the TGI is 3.19 µM with 786-0 renal; 3.54 µM with PC-3 prostate; 3.01 µM in the experiment on SK-MEL-28 melanoma; 3.04 µM with BT-549 breast; 3.32 µM in the experiment on SN12C renal; 3.74 µM in the experiment on OVCAR-8 ovarian. Further, the TGI in the experiment on ACHN renal stood at 2.95 µM; in the experiment on A549 NSCLC it was 3.38 µM; with HOP-62 NSCLC, 3.27 µM.

Regarding `c1cc(-c2cn[nH]c2)cc(-c2cn[nH]c2)c1`, the TGI is over 100 µM in the experiment on 786-0 renal; over 100 µM with SK-MEL-28 melanoma; over 100 µM in the experiment with K-562 leukemia; over 100 µM with SN12C renal; over 100 µM in the experiment on OVCAR-8 ovarian; 69.5 µM in the experiment on A549 NSCLC. The compound also registered a TGI with HOP-62 NSCLC of over 100 µM.

Take `CC(=O)[C-](C(C)=O)c1ccccc1.CC(=O)[C-](C(C)=O)c1ccccc1.CC[O-].CC[O-].[Ti+4]`: the GI50 in the experiment with 786-0 renal, in the experiment on SK-MEL-28 melanoma, with K-562 leukemia, with SN12C renal, with OVCAR-8 ovarian and in the experiment with ACHN renal was over 100 µM throughout. Also, the GI50 in the experiment on A549 NSCLC and in the experiment with HOP-62 NSCLC was over 100 µM each time. Besides, the TGI in the experiment on 786-0 renal, in the experiment on SK-MEL-28 melanoma, in the experiment on K-562 leukemia, in the experiment with SN12C renal, in the experiment with OVCAR-8 ovarian and in the experiment with ACHN renal was over 100 µM each time. The TGI in the experiment on A549 NSCLC and with HOP-62 NSCLC was over 100 µM in each case.

For `COc1ccc(C(=O)C(C(=O)C(=O)Nc2nccs2)c2ccc(OC)cc2)cc1` (stereo not drawn), the TGI in the experiment with 786-0 renal, with SK-MEL-28 melanoma, in the experiment on K-562 leukemia, with SN12C renal, in the experiment with OVCAR-8 ovarian and with ACHN renal was over 100 µM in each case. In the experiment on A549 NSCLC, this compound had a TGI of over 100 µM.

Regarding `COc1ccc(C(=O)COc2cccc(/C=C3\CSc4ccc(Cl)cc4C3=O)c2)cc1`, the GI50 was 15.6 µM in the experiment on 786-0 renal; 3.97 µM in the experiment with PC-3 prostate; 15.4 µM with SK-MEL-28 melanoma; 12.9 µM with BT-549 breast; 8.16 µM in the experiment on SN12C renal; 9.35 µM in the experiment on OVCAR-8 ovarian. Further, the GI50 was 11.9 µM in the experiment with ACHN renal, 64 µM in the experiment with A549 NSCLC and 19.5 µM in the experiment with HOP-62 NSCLC. For the same compound, the TGI with 786-0 renal was determined as 29.8 µM; in the experiment on PC-3 prostate it was 20.4 µM; with SK-MEL-28 melanoma, 29 µM; in the experiment on BT-549 breast it was 33.5 µM; with SN12C renal, 25.7 µM; with OVCAR-8 ovarian it was 56.3 µM. The TGI was 24.6 µM with ACHN renal, over 100 µM with A549 NSCLC and 47.3 µM in the experiment on HOP-62 NSCLC.

`c1ccc2cc(Cn3c[n+](Cc4ccc5ccccc5c4)c4ccccc43)ccc2c1`: the GI50 was 1.52 µM in the experiment with 786-0 renal; 1.1 µM in the experiment with PC-3 prostate; 1.52 µM in the experiment on SK-MEL-28 melanoma; 1.94 µM in the experiment with ACHN renal; 1.87 µM with A549 NSCLC. The TGI was determined as 3.09 µM in the experiment with 786-0 renal; 2.43 µM with PC-3 prostate; 3.11 µM in the experiment with SK-MEL-28 melanoma; 4 µM with ACHN renal; 3.88 µM in the experiment on A549 NSCLC.

Take `CO[C@@]12C[C@H]3[C@@H]([C@@H](O)[C@@H](OC(=O)/C=C/c4ccccc4)[C@@]4(O)C(C)(C)CCC[C@]34C)[C@@H](C)C1=CC(=O)O2`: the GI50 with 786-0 renal was 24.8 µM; with PC-3 prostate, 5.13 µM; in the experiment with SK-MEL-28 melanoma, 11.3 µM; with K-562 leukemia, 12.5 µM; with BT-549 breast it was 11.3 µM; in the experiment with SN12C renal, 4.84 µM. For the same compound, the GI50 with OVCAR-8 ovarian is 5.24 µM; in the experiment on ACHN renal it was 4.16 µM; in the experiment with A549 NSCLC it was 3.64 µM. Further, the TGI is over 100 µM with 786-0 renal; 29.2 µM in the experiment with PC-3 prostate; 35.4 µM in the experiment with SK-MEL-28 melanoma; over 100 µM in the experiment on K-562 leukemia; 27.9 µM in the experiment on BT-549 breast; 19.5 µM with SN12C renal. Besides, the TGI was 25.6 µM with OVCAR-8 ovarian, 17.8 µM in the experiment with ACHN renal and 18.4 µM with A549 NSCLC.

Turning to `C#C[C@H](CCCC)OC(=O)N[C@H](C)c1ccccc1`, the TGI in the experiment on 786-0 renal, in the experiment with SK-MEL-28 melanoma, in the experiment with K-562 leukemia, in the experiment on SN12C renal, with OVCAR-8 ovarian and in the experiment with ACHN renal was over 100 µM in each case. The TGI in the experiment on A549 NSCLC and in the experiment on HOP-62 NSCLC was over 100 µM in each case.

Turning to `O=C(O)/C(=C\c1ccccc1Cl)S(=O)(=O)c1ccccc1`, the TGI with 786-0 renal, in the experiment with K-562 leukemia, in the experiment with SN12C renal, in the experiment with OVCAR-8 ovarian, in the experiment with ACHN renal and in the experiment on A549 NSCLC was over 100 µM each time. This compound also returned a TGI with HOP-62 NSCLC of over 100 µM.

In the case of `COc1ccc2c(c1)cn1c3ccc(O)cc3[nH]c(=O)c21`, the GI50 in the experiment with 786-0 renal was 0.334 µM; in the experiment on PC-3 prostate it was 0.244 µM; with SK-MEL-28 melanoma, 0.147 µM; with BT-549 breast, 2.73 µM; in the experiment with SN12C renal, 0.403 µM; in the experiment on OVCAR-8 ovarian it was 0.428 µM. Further, the GI50 is 0.112 µM with ACHN renal, 0.301 µM in the experiment with A549 NSCLC and 0.258 µM with HOP-62 NSCLC. In addition, the TGI came to 5.49 µM in the experiment on 786-0 renal; 16.4 µM in the experiment on PC-3 prostate; 6.33 µM in the experiment on SK-MEL-28 melanoma; 19.2 µM with BT-549 breast; 17.9 µM with SN12C renal; 2.82 µM in the experiment with OVCAR-8 ovarian. For the same compound, the TGI in the experiment with ACHN renal was 1.99 µM; with A549 NSCLC, 1.82 µM; in the experiment with HOP-62 NSCLC, 17.9 µM.

Take `N[C@@H]1CCCC[C@@H]1N.O=C([O-])CN(CP(=O)([O-])[O-])CP(=O)([O-])[O-].[Pt+2]`: the GI50 in the experiment with 786-0 renal, with SK-MEL-28 melanoma, in the experiment on K-562 leukemia, in the experiment with SN12C renal, with OVCAR-8 ovarian and in the experiment with ACHN renal was over 100 µM throughout. Besides, the GI50 with A549 NSCLC and in the experiment on HOP-62 NSCLC was over 100 µM in each case. Also, the TGI in the experiment with 786-0 renal, in the experiment on SK-MEL-28 melanoma, in the experiment on K-562 leukemia, in the experiment with SN12C renal, in the experiment on OVCAR-8 ovarian and with ACHN renal was over 100 µM throughout. The TGI in the experiment on A549 NSCLC and in the experiment on HOP-62 NSCLC was over 100 µM each time.
